Experimental data published in US6355799B1, “Substituted benzene compounds, process for their preparation, and herbicidal and defoliant compositions containing them” (ISK Americas Incorporated, priority 1997, dated 2002).

Legend:
Type in all cases: in vivo
[1] = tested on: ivyleaf morningglory (Ipomoea hederacea, IPOHE); assay: Pre-emerge test, greenhouse herbicide activity screening; settings: pre-emerge, 14 days after application, scale 0-100
Procedure, shortened: (§1)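 Applied at 15–1000 g ai/ha from acetone in 187 l/ha spray volume. Post-emergence applications included 0.25% v/v non-ionic surfactant and reached plants sown 8–21 days before. Pre-emergence applications were incorporated by surface watering. Efficacy or crop damage was rated on a 0–100 scale after 14 days.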

[2] = tested on: johnsongrass (Sorghum halepense, SORHA); assay: as above; settings: pre-emerge, 14 days after application, scale 0-100
Procedure, shortened: as §1

[3] = tested on: lambsquarters (Chenopodium album, CHEAL); assay: as above; settings: pre-emerge, 14 days after application, scale 0-100
Procedure, shortened: as §1

[4] = tested on: velvetleaf (Abutilon theophrasti, ABUTH); assay: as above; settings: pre-emerge, 14 days after application, scale 0-100
Procedure, shortened: as §1

[5] = tested on: green foxtail (Setaria viridis, SETVI); assay: as above; settings: pre-emerge, 14 days after application, scale 0-100
Procedure, shortened: as §1

[6] = tested on: barnyardgrass (Echinochloa crus-galli, ECHCG); assay: as above; settings: pre-emerge, 14 days after application, scale 0-100
Procedure, shortened: as §1

[7] = tested on: large crabgrass (Digitaria sanguinalis, DIGSA); assay: as above; settings: pre-emerge, 14 days after application, scale 0-100
Procedure, shortened: as §1

[8] = tested on: sicklepod (Cassia obtusifolia, CASOB); assay: as above; settings: pre-emerge, 14 days after application, scale 0-100
Procedure, shortened: as §1

[9] = tested on: redroot pigweed (Amaranthus retroflexus, AMARE); assay: as above; settings: pre-emerge, 14 days after application, scale 0-100
Procedure, shortened: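 Rating: 0–100 visual injury, 14 DAA. Application: acetone, 187 l/ha, 15–1000 g ai/ha, flat-fan track sprayer with nozzle 40–45 cm above soil or canopy. Post-emerge runs used 0.25% v/v surfactant on 2–3 leaf plants.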

[10] = tested on: upland rice (Oryza sp., var. Tebonnet, RICE); assay: Post-emerge test, crop safety; settings: post-emerge, 14 days after application, rating scale 0-100
Procedure, shortened: as §1

[11] = tested on: field corn (Zea mays L., var. Dekalb 535, CORN); assay: Post-emerge test, crop safety; settings: post-emerge, 14 days after application, rating scale 0-100
Procedure, shortened: as §1

[12] = tested on: ivyleaf morningglory (Ipomoea hederacea, IPOHE); assay: Post-emerge test, greenhouse herbicide activity screening; settings: post-emerge, 14 days after application, rating scale 0-100
Procedure, shortened: (§2)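 Sandy loam pots; pre-emerge: sown 1 d pre-spray, surface-watered after, then bottom-watered. Post-emerge: sown 8–21 d before, 2–3 leaf stage, + 0.25% v/v NIS, bottom-watered. Acetone, 187 l/ha track spray, 15–1000 g ai/ha. 0–100 injury score, day 14.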

[13] = tested on: johnsongrass (Sorghum halepense, SORHA); assay: as above; settings: post-emerge, 14 days after application, rating scale 0-100
Procedure, shortened: as §2

[14] = tested on: lambsquarters (Chenopodium album, CHEAL); assay: as above; settings: post-emerge, 14 days after application, rating scale 0-100
Procedure, shortened: as §2

[15] = tested on: velvetleaf (Abutilon theophrasti, ABUTH); assay: as above; settings: post-emerge, 14 days after application, rating scale 0-100
Procedure, shortened: as §2

[16] = tested on: green foxtail (Setaria viridis, SETVI); assay: as above; settings: post-emerge, 14 days after application, rating scale 0-100
Procedure, shortened: as §2

[17] = tested on: barnyardgrass (Echinochloa crus-galli, ECHCG); assay: as above; settings: post-emerge, 14 days after application, rating scale 0-100
Procedure, shortened: as §2

[18] = tested on: large crabgrass (Digitaria sanguinalis, DIGSA); assay: as above; settings: post-emerge, 14 days after application, rating scale 0-100
Procedure, shortened: as §2

[19] = tested on: sicklepod (Cassia obtusifolia, CASOB); assay: as above; settings: post-emerge, 14 days after application, rating scale 0-100
Procedure, shortened: as §2

[20] = tested on: redroot pigweed (Amaranthus retroflexus, AMARE); assay: as above; settings: post-emerge, 14 days after application, rating scale 0-100
Procedure, shortened: as §2

[21] = tested on: upland rice (Oryza sp., var. Tebonnet, RICE); assay: Pre-emerge test, crop safety; settings: pre-emerge, 14 days after application, scale 0-100
Procedure, shortened: (§3)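 Visual ratings on a 0-100 scale (0 no damage, 100 all plants dead) were taken at 14 days after treatment. Rates of 15-1000 g ai/ha in acetone, 187 l/ha, were sprayed onto soil one day after planting (pre-emerge) or onto 2-3 leaf plants with 0.25% v/v surfactant (post-emerge).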

[22] = tested on: field corn (Zea mays L., var. Dekalb 535, CORN); assay: Pre-emerge test, crop safety; settings: pre-emerge, 14 days after application, scale 0-100
Procedure, shortened: as §3

`COc1c(Cl)cc(F)c(-n2c(=O)cc(C(F)(F)F)n(C)c2=O)c1NC(=O)CSC` [2-168] was tested, and the “phytotoxicity rating IPOHE” value ([1]; 63 g ai/ha) was 40, the “phytotoxicity rating IPOHE” value ([1]; 250 g ai/ha) was 90 and the “phytotoxicity rating SORHA” value ([2]; 63 g ai/ha) was 0. The “phytotoxicity rating SORHA” value ([2]; 250 g ai/ha) was 90, the “phytotoxicity rating CHEAL” value ([3]; 63 g ai/ha) was 100 and the “phytotoxicity rating CHEAL” value ([3]; 250 g ai/ha) was 100. The “phytotoxicity rating ABUTH” value ([4]; 63 g ai/ha) was 60, the “phytotoxicity rating ABUTH” value ([4]; 250 g ai/ha) was 100 and the “phytotoxicity rating SETVI” value ([5]; 63 g ai/ha) was 10. The “phytotoxicity rating SETVI” value ([5]; 250 g ai/ha) was 95, the “phytotoxicity rating ECHCG” value ([6]; 63 g ai/ha) was 0 and the “phytotoxicity rating ECHCG” value ([6]; 250 g ai/ha) was 20. For the same compound, the “phytotoxicity rating DIGSA” value ([7]; 63 g ai/ha) was 0, the “phytotoxicity rating DIGSA” value ([7]; 250 g ai/ha) was 80 and the “phytotoxicity rating CASOB” value ([8]; 63 g ai/ha) was 30. For the same compound, the “phytotoxicity rating CASOB” value ([8]; 250 g ai/ha) was 80, the “phytotoxicity rating AMARE” value ([9]; 63 g ai/ha) was 90 and the “phytotoxicity rating AMARE” value ([9]; 250 g ai/ha) was 100. The “RICE phytotoxicity rating (crop damage)” value ([10]; 63 g ai/ha) was 10, the “RICE phytotoxicity rating (crop damage)” value ([10]; 250 g ai/ha) was 30 and the “CORN phytotoxicity rating (crop damage)” value ([11]; 63 g ai/ha) was 5. For the same compound, the “CORN phytotoxicity rating (crop damage)” value ([11]; 250 g ai/ha) was 10, the IPOHE phytotoxicity rating ([12]; 63 g ai/ha) was 60 and the IPOHE phytotoxicity rating ([12]; 250 g ai/ha) was 100. The SORHA phytotoxicity rating ([13]; 63 g ai/ha) was 0, the SORHA phytotoxicity rating ([13]; 250 g ai/ha) was 0 and the CHEAL phytotoxicity rating ([14]; 63 g ai/ha) was 30. For the same compound, the CHEAL phytotoxicity rating ([14]; 250 g ai/ha) was 50, the ABUTH phytotoxicity rating ([15]; 63 g ai/ha) was 60 and the ABUTH phytotoxicity rating ([15]; 250 g ai/ha) was 100. For the same compound, the SETVI phytotoxicity rating ([16]; 63 g ai/ha) was 0, the SETVI phytotoxicity rating ([16]; 250 g ai/ha) was 10 and the ECHCG phytotoxicity rating ([17]; 63 g ai/ha) was 0. The ECHCG phytotoxicity rating ([17]; 250 g ai/ha) was 0, the DIGSA phytotoxicity rating ([18]; 63 g ai/ha) was 0 and the DIGSA phytotoxicity rating ([18]; 250 g ai/ha) was 0. For the same compound, the CASOB phytotoxicity rating ([19]; 63 g ai/ha) was 0, the CASOB phytotoxicity rating ([19]; 250 g ai/ha) was 80 and the AMARE phytotoxicity rating ([20]; 63 g ai/ha) was 20. For the same compound, the AMARE phytotoxicity rating ([20]; 250 g ai/ha) was 50, the “phytotoxicity rating RICE (crop damage)” value ([21]; 63 g ai/ha) was 20 and the “phytotoxicity rating RICE (crop damage)” value ([21]; 250 g ai/ha) was 60. For the same compound, the “phytotoxicity rating CORN (crop damage)” value ([22]; 63 g ai/ha) was 0.

In the case of `COc1c(Cl)cc(F)c(-n2c(=O)cc(C(F)(F)F)n(C)c2=O)c1NC(=O)CSc1ccc2ccccc2c1` [2-169], the “phytotoxicity rating IPOHE” value ([1]; 63 g ai/ha) is reported as 10, the “phytotoxicity rating IPOHE” value ([1]; 250 g ai/ha) is reported as 20 and the “phytotoxicity rating SORHA” value ([2]; 63 g ai/ha) is reported as 0. For the same compound, the “phytotoxicity rating SORHA” value ([2]; 250 g ai/ha) was 20, the “phytotoxicity rating CHEAL” value ([3]; 63 g ai/ha) was 65 and the “phytotoxicity rating CHEAL” value ([3]; 250 g ai/ha) was 100. For the same compound, the “phytotoxicity rating ABUTH” value ([4]; 63 g ai/ha) was 0, the “phytotoxicity rating ABUTH” value ([4]; 250 g ai/ha) was 90 and the “phytotoxicity rating SETVI” value ([5]; 63 g ai/ha) was 0. For the same compound, the “phytotoxicity rating SETVI” value ([5]; 250 g ai/ha) was 30, the “phytotoxicity rating ECHCG” value ([6]; 63 g ai/ha) was 0 and the “phytotoxicity rating ECHCG” value ([6]; 250 g ai/ha) was 0. For the same compound, the “phytotoxicity rating DIGSA” value ([7]; 63 g ai/ha) was 0, the “phytotoxicity rating DIGSA” value ([7]; 250 g ai/ha) was 80 and the “phytotoxicity rating CASOB” value ([8]; 63 g ai/ha) was 20. For the same compound, the “phytotoxicity rating CASOB” value ([8]; 250 g ai/ha) was 30, the “phytotoxicity rating AMARE” value ([9]; 63 g ai/ha) was 70 and the “phytotoxicity rating AMARE” value ([9]; 250 g ai/ha) was 80. The “RICE phytotoxicity rating (crop damage)” value ([10]; 63 g ai/ha) was 10, the “RICE phytotoxicity rating (crop damage)” value ([10]; 250 g ai/ha) was 10 and the “CORN phytotoxicity rating (crop damage)” value ([11]; 63 g ai/ha) was 10. For the same compound, the “CORN phytotoxicity rating (crop damage)” value ([11]; 250 g ai/ha) was 10, the IPOHE phytotoxicity rating ([12]; 63 g ai/ha) was 50 and the IPOHE phytotoxicity rating ([12]; 250 g ai/ha) was 40. It also gave an SORHA phytotoxicity rating ([13]; 63 g ai/ha) of 0, an SORHA phytotoxicity rating ([13]; 250 g ai/ha) of 0 and a CHEAL phytotoxicity rating ([14]; 63 g ai/ha) of 30. The CHEAL phytotoxicity rating ([14]; 250 g ai/ha) was 40, the ABUTH phytotoxicity rating ([15]; 63 g ai/ha) was 70 and the ABUTH phytotoxicity rating ([15]; 250 g ai/ha) was 80. For the same compound, the SETVI phytotoxicity rating ([16]; 63 g ai/ha) was 0, the SETVI phytotoxicity rating ([16]; 250 g ai/ha) was 0 and the ECHCG phytotoxicity rating ([17]; 63 g ai/ha) was 0. It also gave an ECHCG phytotoxicity rating ([17]; 250 g ai/ha) of 0, a DIGSA phytotoxicity rating ([18]; 63 g ai/ha) of 0 and a DIGSA phytotoxicity rating ([18]; 250 g ai/ha) of 0. The CASOB phytotoxicity rating ([19]; 63 g ai/ha) was 10, the CASOB phytotoxicity rating ([19]; 250 g ai/ha) was 10 and the AMARE phytotoxicity rating ([20]; 63 g ai/ha) was 10. For the same compound, the AMARE phytotoxicity rating ([20]; 250 g ai/ha) was 0, the “phytotoxicity rating RICE (crop damage)” value ([21]; 63 g ai/ha) was 10 and the “phytotoxicity rating RICE (crop damage)” value ([21]; 250 g ai/ha) was 40. The “phytotoxicity rating CORN (crop damage)” value ([22]; 63 g ai/ha) was 0 and the “phytotoxicity rating CORN (crop damage)” value ([22]; 250 g ai/ha) was 0.
